Source: patent US10913983B2, “Sensitivity markers and uses for CDK7 inhibitors in breast cancers” (UNIVERSITY OF SOUTH CAROLINA, priority 2017, dated 2021)

Key:
[1] = tested on: PARP cleavage in MDA-MB-231, SKBR3 and JIMT-1 cells; test: Immunoblotting for PARP cleavage; assay type: cell-based; conditions: 250 nM, 24 and 48 hours
Experimental: (§1) Cells were plated in 100 mm^2 petri dishes at a density of 1×10^6 cells/plate and allowed to grow for 3-4 days until the cells reached 80% confluency. Cells were treated with THZ1 or with vehicle control (DMSO) prior to lysing cells in RIPA buffer containing protease inhibitor cocktail and PMSF. Protein concentration was determined using BCA assay (Pierce). All lysates were prepared in biological duplicates. Protein (50 μg) was resolved on 4-20% Express-Plus PAGE gels in Tris-MOPS (SDS) running buffer (GenScript), transferred to PVDF membranes and incubated at 4° C. overnight with primary antibodies: CDK7 (sc-529, SantaCruz), ER (sc-543, SantaCruz), HER2 (#4290, Cell Signaling Technology), RNA-Pol II-S2P (C152000005, Diagenode), RNA-Pol II-S5P C152000007, RNA-Pol II-S7P (04-1570, Millipore) and RNA-Pol II (sc-900X, SantaCruz), CITED2 (MAB5005, R+D Systems), Tubulin (T-9026, Sigma), followed by anti-rabbit (#31460, ThermoFisher Scientific), anti-mouse (31430, ThermoFisher Scientific) or anti-rat (AP136P, Millipore) secondary antibodies. Bands were visualized with Western Lighting Plus ECL detection reagent (Perkin Elmer) using ChemiDoc Touch™ (BioRad). Images were analyzed and densitometry performed using ImageLab software (Biorad).

[2] = tested on: serum starved SKBR3 cells; test: EGF stimulation; assay type: cell-based; conditions: 100 ng/ml EGF with 250 nM THZ1, 6 hours
Experimental: SKBR3 cells were seeded into duplicate 6-well plates and allowed to grow until 80% confluent. The cells were then washed with PBS and the media was replaced with serum-free media overnight. After serum starvation the cells were treated with 100 ng/ml EGF with or without 250 nM THZ1 for 6 hours then lysates were collected for both RNA and protein analysis.

CITED2 = test: Immunoblotting of CITED2 protein; assay type: cell-based; conditions: 10-6250 nM, 4 hours, immunoblot
Experimental: as §1

T47D = conditions: fold change in gene expression, THZ1; cited from earlier work
[3] = tested on: phosphorylation of RNA Pol II at S2, S5 and S7; test: Immunoblotting of RNA Pol II phosphorylation; assay type: cell-based; conditions: increasing concentrations (10-6250 nM), 4 hours, multiple breast cancer cell lines
Experimental: as §1
The effects of increasing concentrations of THZ1 on the phosphorylation of RNA Pol II at S2, S5 and S7 was tested across multiple breast cancer cell lines. […]

549 = conditions: fold change in gene expression, THZ1; cited from earlier work
breast cancer cell lines = test: qPCR gene expression after THZ1; assay type: cell-based; conditions: 250 nM, 6 hours
Experimental: Cells were plated in 100 mm^2 petri dishes at a density of 1×10^6 cells/plate and allowed to grow for 3-4 days until the cells reached 80% confluency. Cells were treated with THZ1 or with vehicle control (DMSO). Total RNA was extracted using RNAeasy Mini Kit (Qiagen) and 1 μg of total RNA was used to generate cDNA using iScript cDNA synthesis kit (BioRad). Gene expression was quantified using iTaq Universal SYBR green super mix on a CFX384 Real time system (BioRad).

## CN(C)C/C=C/C(=O)Nc1ccc(C(=O)Nc2cccc(Nc3ncc(Cl)c(-c4c[nH]c5ccccc45)n3)c2)cc1 [THZ1]
[1]
  PARP cleavage: induced PARP cleavage only in the SKBR3 cells
[2]
  EGF induction of CITED2 expression (mRNA): prevented
  EGF induction of mRNA expression of EGFR, MYC, CDKN1B, PLK2 and FOXC1: prevented
  EGF-induced increase of CITED2 protein: prevented
CITED2
  protein expression of CITED2: significantly decreased
T47D
  BAMBI T47D FC: −1.74
  CDKN1B T47D FC: −2.3
  CITED2 T47D FC: −2.71
  CYR61 T47D FC: −1.96
  DKK1 T47D FC: −1.09
  E2F8 T47D FC: −4.01
  ELF3 T47D FC: −1.22
  FADD T47D FC: −3.29
  FBXO5 T47D FC: −2.65
  MARS2 T47D FC: −2.3
  MOCS3 T47D FC: −3.86
  MYC T47D FC: −2.68
  NEDD9 T47D FC: −3.32
  PHLDA1 T47D FC: −3.81
  PIM3 T47D FC: −2.54
  PLK2 T47D FC: −2.48
  TRIB1 T47D FC: −2.31
  WEE1 T47D FC: −1.96
  ZNF217 T47D FC: −2.77
  ZNF627 T47D FC: −2.75
[3]
  phosphorylation of RNA Pol II at S2, S5 and S7: inhibited the phosphorylation of all three sites in a dose dependent manner
549
  BAMBI 549 FC: −2.97
  CDKN1B 549 FC: −3.06
  CITED2 549 FC: −4.12
  CYR61 549 FC: −2.96
  DKK1 549 FC: −5.01
  E2F8 549 FC: −3.09
  ELF3 549 FC: −1.11
  FADD 549 FC: −3.1
  FBXO5 549 FC: −4.09
  MARS2 549 FC: −3.73
  MOCS3 549 FC: −4.2
  MYC 549 FC: −3.06
  NEDD9 549 FC: −1.53
  PHLDA1 549 FC: −2.72
  PIM3 549 FC: −2.73
  PLK2 549 FC: −3.7
  TRIB1 549 FC: −4.07
  WEE1 549 FC: −2.95
  ZNF217 549 FC: −3.66
  ZNF627 549 FC: −3.39
Breast cancer cell lines; MDA-MB-231 and T47D
  expression of SOX9 and STAT3: not inhibited
Breast cancer cell lines; majority of tested cell lines
  expression of CITED2, CDKN1B and PLK2: significant decrease in expression
Breast cancer cell lines; majority of the cell lines tested
  expression of EGFR, MYC and FOXC1: significantly inhibited
